Measurements: patent US20060029576A1, “Biological control of pythium disease in crops” (HER MAJESTY THE QUEEN IN RIGHT OF CANADA, THE MINISTER OF …, priority 2004, published 2006)

How the values were obtained:
Assay type in all cases: in vivo
Pythium spp. [1] = assay: Seed treatment of sugar beet, field naturally infested with Pythium spp. (2001 field experiments); details: 4 weeks after planting
Method: (§1) The selected strains of R. leguminosarum bv. viceae (R12, R20, and R21) effective against Pythium damping-off of sugar beet in indoor experiments were tested for control of damping-off of sugar beet and field pea in fields naturally infested with Pythium spp. at the Lethbridge Research Centre, Alberta. […] (Bardin et al. 2003). The seeds were coated with the bacterial slurry as described previously using 2.4 and 9.5 mL bacterial slurry/100 seeds of sugar beet and field pea, respectively. The seeds were dried overnight at room temperature on a metallic mesh, which was placed on a paper towel to absorb the excess slurry. The number of bacteria coated onto the seeds was similar for the four bacterial strains, ranging from 1.4×10^6±0.2×10^6 to 2.3×10^7±0.2×10^7 cfu/seed for sugar beets and 3.0×10^7±0.3×10^7 to 1.2×10^8±0.4×10^8 cfu/seed for field peas. The coated seeds were then stored at 4° C. until planting. Bacterial counts on the seeds were determined by vortexing five coated seeds in 5 mL of distilled sterile water for 30 seconds, and by plating serial dilutions on TY agar medium in Petri dishes for Rhizobium strains and on PDA in Petri dishes for P. fluorescens. […] Seedling emergence was recorded 4 weeks after planting and was compared with the uninoculated and fungicide controls. […]

Pythium spp. [2] = assay: Seed treatment of field pea, field naturally infested with Pythium spp. (2001 field experiments); details: 4 weeks after planting
Method: as §1

[3] = tested on: Pythium spp. (predominantly Pythium sp. ‘group G’); assay: Seed treatment of lentil cv. Laird, damping-off field experiment 2004
Method: (§2) The strains of Rhizobium leguminosarum bv. viceae used for the study were 99A1, R12, R20, and R21. Strain 99A1 was originated from the commercial pea inoculant produced by Agrium, Inc. Calgary, Alberta. Bacterial cultures were grown on tryptone-yeast agar (TYA) (Beringer, 1974) in Petri dishes for 48 h at room temperature (20±2° C.). The resulting colonies were suspended in 5 ml per dish of 1% methyl cellulose (Sigma-Aldrich, Milwaukee, Wis.) in sterile distilled water, and scraped gently with a spatula to obtain bacterial slurries. Seeds of field pea cv. Trapper and lentil cv. Laird were soaked for 20 minutes in the slurries, spread on a metallic mesh sheet with paper towel underneath to absorb the excess slurry, and air-dried overnight under a fume hood. Enumeration of bacteria coated onto seeds was done by placing 5 seeds in a test tube with 5 ml of sterile distilled water, vortexing for 30 sec, and plating serial dilutions on TYA, 0.1 ml per 9-cm dish. After incubation at room temperature for 3 days, bacterial colonies developed in each dish were counted. There were two replicates for each treatment.
(§3) Field experiments were conducted at the Agriculture and Agri-Food Canada Research Centre near Lethbridge, Alberta, Canada, in a field naturally infested with Pythium spp. (predominantly Pythium sp. ‘group G’). For the pea experiment, seeds were planted using a plot seeder on 28 May 2004, in 4-row plots with a row length of 5 m, a row spacing of 22.5 cm, and a plant spacing of 5 cm (i.e. 20 seeds/m). Untreated seeds and fungicide-treated seeds (Thiram™ at the rate of 30 g/25 kg seed) (Gustafson; Calgary, Alberta, Canada) were used as controls. Treatments were arranged in a randomized block design with 6 replicates. For the lentil experiment, seeds were planted on the same date and using the same parameters as for field pea.
(§4) Seedling emergence for each plot was determined. The number of healthy seedlings and the number of wilted seedlings were counted in the middle 3 m of each row, and the percent loss due to pre-emergent and post-emergent damping-off were calculated, as well as the final stand establishment. The causal agent of seedling death was determined by collecting 10 non-emerged seedlings and all of the wilted seedlings from each plot, washing in running water, surface sterilizing in 70% ethanol for 90 sec, incubating on potato dextrose agar (PDA) in Petri dishes at room temperature for 7 days, and examining the organisms derived from each sample. Results of reisolation of diseased seedlings were used to calculate the incidence of damping-off due to Pythium spp. for each plot.
(§5) Seedling height for each plot was determined (6-node stage for peas; 5-node stage for lentils). For each row, ten seedlings were randomly selected and the distance from the first node to the terminal branch of each seedling was measured.
(§6) Differences between treatments for incidence of damping-off, seedling emergence and seedling height data were analyzed for statistical significance using analysis of variance (ANOVA) and means of treatments for each set of data were separated using Duncan's multiple range test at the P=0.05 level. All statistical analyses were done using SAS Statistical Analysis Software, Version 8.2 (SAS Institute Inc., Cary, N.C. 2001).

[4] = tested on: Pythium spp. (predominantly Pythium sp. ‘group G’); assay: Seed treatment of field pea cv. Trapper, damping-off field experiment 2004; details: for Plant Height (cm): 6-node stage (4 weeks after planting)
Method: as §2, §3, §4, §5, §6

SMILES: CN(C)C(=S)SSC(=S)N(C)C [Thiram]
- Emergence (%) Sugar beet (Beta vulgaris) August 2001 (Pythium spp. [1]; untreated control 6.5): 27.0a %
- Emergence (%) Sugar beet (Beta vulgaris) May 2001 (Pythium spp. [1]; untreated control 10.0): 28.6a %
- Emergence (%) Pea (Pisum sativum) August 2001 (Pythium spp. [2]; untreated control 12.8): 48.3a %
- Emergence (%) Pea (Pisum sativum) May 2001 (Pythium spp. [2]; untreated control 41.4): 71.4a %
- Plant Height (cm) ([3]; 5-node stage (4 weeks after planting), control 11.2): 11.4 a cm
- Damping-off (%) Post-emergent ([3]; control 2.7): 2.6%
- Damping-off (%) by Pythium ([3]; control 35.3, listed as Fungicide (Thiram)): 22.8 d %
- Damping-off (%) by Pythium ([3]; control 35.3, listed as fungicide): 22.8%
- Damping-off (%) Pre-emergent ([3]; control 46.3): 34.2%
- Damping-off (%) Pre-emergent ([3]; control 46.3, listed as Fungicide (Thiram)): 34.2 c %
- Final Stand (%) ([3]; control 51.0): 63.2 d %
- Plant Height (cm) ([4]; control 11.1): 14.6 cm
- Plant Height (cm) ([4]; control 11.1, listed as Fungicide (Thiram)): 14.6 c cm
- Damping-off (%) Post-emergent ([4]; control 0.2): 0.6%
- Final Stand (%) ([4]; control 37.8): 79.1 c %
- Damping-off (%) by Pythium ([4]; control 55.4, listed as Fungicide (Thiram)): 16.7 c %
- Damping-off (%) by Pythium ([4]; control 55.4, listed as fungicide): 16.7%
- Damping-off (%) Pre-emergent ([4]; control 62.0): 20.3%
- Damping-off (%) Pre-emergent ([4]; control 62.0, listed as Fungicide (Thiram)): 20.3 c %
